What was measured:
[1] = Transwell assay for membrane efflux and permeability; assay type: in vitro ADME, Canine; settings: dog; MDCK-BCRP or MDCKII-MDR1 transwell, test compound 1 μM, 2 hours at 37° C.
Excerpt: Compounds described herein were screened for cell membrane permeability and efflux in a transwell assay using Madin-Darby Canine Kidney (MDCK) cells expressing Breast Cancer Resistance Protein (BCRP) or subclone MDCKII cells expressing Multidrug Resistance Protein 1 (MDR1).
MDCK-BCRP or MDCKII-MDR1 Cells: The Netherlands Cancer Institute, High Glucose Dulbecco's Modified Eagle's Medium (DMEM): Gibco/Thermo Fisher Scientific, Fetal Bovine Serum (FBS): Coming, Hank's Balanced Salt Solution (HBSS) and Trypsin/EDTA: Gibco/Thermo Fisher Scientific, HTS Transwell-96 Well Permeable Supports: Coming Corporation, Millicell Epithelial Volt-Ohm: Millipore, Cellometer® Vision: Nexcelom Bioscience LLC, Infinite 200 PRO microplate reader: Tecan, MTS2/4 orbital shaker: IKA Labortechnik, HEPES/Penicillin/Streptomycin: Solarbio.
MDCK-BCRP or MDCKII-MDR1 cells were seeded to each of the wells of the transwell plate at a density of 1.6×10^6 cells/mL and the plate was incubated for 4-8 days with medium changes every two days. To perform the drug transport assay, cell monolayers were first washed three times with pre-warmed HBSS and then incubated with gentle shaking (150 rpm) for 30 min at 37° C. Stock solutions of test compounds (e.g., exemplary compounds of Formulas (I), (II), and (III)) and control compounds (e.g., metoprolol, prazosin, and/or imatinib) were prepared in DMSO and adjusted to a working solution using HBSS. The final concentration of test compounds was 1 μM with DMSO; 0.5%. The plates were incubated at 37° C. for 2 hours.

MYB [2] = experiment: HiBiT protein abundance assay, MYB; assay type: cell-based, human; settings: modified K562 cells
In short: (§1)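 Tagged-target degradation assay: HiBiT-modified K562 cells treated 24 h with compound, 10 concentrations up to 10 μM final. Following lysis with LgBiT and substrate, luminescence gave normalized abundance; IC50 derived by logistic interpolation at 50%.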

HTT [3] = experiment: HiBiT protein abundance assay, HTT; assay type: cell-based, human; settings: modified K562 cells
In short: as §1

Target C [4] = experiment: HiBiT protein abundance assay, Target C; assay type: cell-based, human; settings: modified K562 cells
In short: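 Target tagged with HiBiT by knock-in; 24 h dosing, 10 μM top final in 3-fold steps. IC50 from 4PL fit of normalized luminescence.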

HTT [5] = experiment: Splicing RT-qPCR assay, HTT mRNA canonical junction (CJ) and alternative junction (AJ); assay type: cell-based, human; settings: Homo sapiens, gene panel, CJ qPCR, protocol of Example 142; read-out: HTT IC50 (decrease in CJ mRNA levels)
In short: (§2)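 Splice switching is measured in A673 or K562 cells after 24 h compound exposure (maximum 10 uM, 3-fold steps). Canonical and alternative junction mRNA levels are quantified by RT-qPCR relative to housekeeper and DMSO.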

MYB [6] = experiment: Splicing RT-qPCR assay, MYB mRNA canonical junction (CJ) and alternative junction (AJ); assay type: cell-based, human; settings: Homo sapiens, gene panel, CJ qPCR, protocol of Example 142; read-out: MYB IC50 (decrease in CJ mRNA levels)
In short: as §2

SMN2 = experiment: Splicing RT-qPCR panel, SMN2 canonical junction (CJ) mRNA; assay type: cell-based, human; settings: Homo sapiens, gene panel, CJ qPCR, protocol of Example 142; read-out: SMN2 IC50 (decrease in CJ mRNA levels)
In short: as §2

Target C [7] = experiment: Splicing RT-qPCR panel, Target C canonical junction (CJ) mRNA; assay type: cell-based, human; settings: Homo sapiens, gene panel, CJ qPCR, protocol of Example 142; read-out: Target C IC50 (decrease in CJ mRNA levels)
In short: as §2

[8] = Homo sapiens, K562, 24 h, Table 13A
[9] = Homo sapiens, K562, 24 h, Table 13B

Row | IC50 (HTT [5]) [nM] | IC50 (MYB [6]) [nM] | IC50 (SMN2) [nM] | IC50 (Target C [7]) [nM] | IC50 (MYB [2]; [9]) [nM] | IC50 (HTT [3]; [9]) [nM] | IC50 (Target C [4]; [9]) [nM] | SMILES | Papp at 2 h, 1 μM [1] [×10⁻⁶ cm/s] | efflux ratio at 2 h, 1 μM [1] | IC50 (MYB [2]; Table 13A, 24 hours) [nM] | IC50 (HTT [3]; Table 13A, 24 hours) [nM] | IC50 (Target C [4]; Table 13A, 24 hours) [nM] | IC50 (MYB [2]; [8]) [nM] | IC50 (HTT [3]; [8]) [nM] | IC50 (Target C [4]; [8]) [nM]
1 | – | – | – | – | – | – | – | CN(c1ccc(-c2cc(F)c(-c3cn[nH]c3)c3cn[nH]c23)nn1)[C@@H]1C[C@H]2CC[C@@H](C1)N2 [Compound 147] | < 2 | > 5 | < 100 | < 100 | < 100 | – | – | –
2 | – | – | – | – | – | – | – | COc1cc(-c2ccc(-c3ccc(N(C)[C@@H]4C[C@H]5CC[C@@H](C4)N5)nn3)c3[nH]ncc23)ccn1 [Compound 385, (exo)-N-{6-[4-(2-methoxypyridin-4-yl)-1H-indazol-7-yl]pyridazin-3-yl}-N-methyl-8-azabicyclo[3.2.1]octan-3-amine] | < 2 | > 5 | – | – | – | – | – | –
3 | – | – | – | – | – | – | – | CN(c1ccc(-c2ccc(-c3cnn(C)c3)c3cn[nH]c23)nn1)[C@@H]1C[C@H]2CC[C@@H](C1)N2 [Compound 386, (exo)-N-methyl-N-{6-[4-(1-methylpyrazol-4-yl)-1H-indazol-7-yl]pyridazin-3-yl}-8-azabicyclo[3.2.1]octan-3-amine] | < 2 | > 5 | – | – | – | < 100 | < 100 | < 100
4 | 1000 to 10000 | 1000 to 10000 | 100 to 1000 | 1000 to 10000 | 1000 to 10000 | 100 to 1000 | 1000 to 10000 | COc1nc(-c2ccc(NC3CCNCC3)nc2)ccc1-c1cnn(C)c1 [Compound 986] | – | – | – | – | – | – | – | –
5 | > 10000 | > 10000 | 1000 to 10000 | > 10000 | 1000 to 10000 | > 10000 | 1000 to 10000 | COc1nc(-c2ccc(NC3CCNCC3)nc2)ccc1-n1cccn1 [Compound 987] | – | – | – | – | – | – | – | –
6 | 1000 to 10000 | > 10000 | 100 to 1000 | > 10000 | 1000 to 10000 | 1000 to 10000 | 1000 to 10000 | COc1nc(-c2ccc(NC3CCNCC3)nc2)ccc1-c1cnn(C)n1 [Compound 988] | – | – | – | – | – | – | – | –
7 | 100 to 1000 | 1000 to 10000 | 100 to 1000 | 1000 to 10000 | 1000 to 10000 | 100 to 1000 | 100 to 1000 | COc1nc(-c2ccc(OC3CC(C)(C)NC(C)(C)C3)nc2)ccc1-c1cn[nH]c1 [Compound 989] | – | – | – | – | – | – | – | –
8 | > 10000 | > 10000 | > 10000 | > 10000 | > 10000 | 1000 to 10000 | 1000 to 10000 | COc1nc(-c2ccc(OC3CC(C)(C)NC(C)(C)C3)nc2)ccc1-n1cccn1 [Compound 991] | – | – | – | – | – | – | – | –
9 | 1000 to 10000 | > 10000 | 1000 to 10000 | > 10000 | 1000 to 10000 | 100 to 1000 | 1000 to 10000 | COc1nc(-c2ccc(OC3CC(C)(C)NC(C)(C)C3)nc2)ccc1-c1cnn(C)n1 [Compound 992] | – | – | – | – | – | – | – | –
10 | 100 to 1000 | > 10000 | 100 to 1000 | > 10000 | > 10000 | 100 to 1000 | 1000 to 10000 | COc1nc(-c2ccc(N3CCC(NC4CC4)C3)nn2)ccc1-c1cn[nH]c1 (centres unmarked) [Compound 998] | – | – | – | – | – | – | – | –
11 | 1000 to 10000 | 1000 to 10000 | 100 to 1000 | 1000 to 10000 | 1000 to 10000 | 1000 to 10000 | > 10000 | COc1nc(-c2ccc(OC3CC(C)(C)NC(C)(C)C3)nn2)cnc1-c1cn[nH]c1 [Compound 999] | – | – | – | – | – | – | – | –

Row | SMILES | IC50 (HTT [5]) [nM] | IC50 (MYB [6]) [nM] | IC50 (SMN2) [nM] | IC50 (Target C [7]) [nM] | IC50 (MYB [2]; [9]) [nM] | IC50 (HTT [3]; [9]) [nM] | IC50 (Target C [4]; [9]) [nM] | Papp at 2 h, 1 μM [1] [×10⁻⁶ cm/s] | efflux ratio at 2 h, 1 μM [1] | IC50 (MYB [2]; Table 13A, 24 hours) [nM] | IC50 (HTT [3]; Table 13A, 24 hours) [nM] | IC50 (Target C [4]; Table 13A, 24 hours) [nM] | IC50 (MYB [2]; [8]) [nM] | IC50 (HTT [3]; [8]) [nM] | IC50 (Target C [4]; [8]) [nM]
12 | COc1nc(-c2cnc(N(C)[C@@H]3C[C@H]4CC[C@@H](C3)N4)nc2)ccc1-c1cn[nH]c1 [Compound 981] | 100 to 1000 | 1000 to 10000 | 100 to 1000 | 1000 to 10000 | 100 to 1000 | < 100 | 100 to 1000 | – | – | – | – | – | – | – | –
13 | COc1nc(-c2ccc(N(C)C3CC(C)(C)NC(C)(C)C3)nc2)ccc1-c1cn[nH]c1 [Compound 993] | < 100 | 100 to 1000 | < 100 | 100 to 1000 | 100 to 1000 | < 100 | 100 to 1000 | – | – | – | – | – | – | – | –
14 | COc1nc(-c2ccc(N(C)C3CC(C)(C)NC(C)(C)C3)nc2)ccc1-c1cnn(C)c1 [Compound 994] | 100 to 1000 | 100 to 1000 | 1000 to 10000 | 100 to 1000 | 1000 to 10000 | 100 to 1000 | 100 to 1000 | – | – | – | – | – | – | – | –
15 | COc1nc(-c2ccc(N(C)C3CC(C)(C)NC(C)(C)C3)nc2)ccc1-n1cccn1 [Compound 995] | 1000 to 10000 | > 10000 | 1000 to 10000 | > 10000 | 1000 to 10000 | 1000 to 10000 | 1000 to 10000 | – | – | – | – | – | – | – | –
16 | COc1nc(-c2ccc(N(C)C3CC(C)(C)NC(C)(C)C3)nc2)ccc1-c1cnn(C)n1 [Compound 996] | 100 to 1000 | 1000 to 10000 | 100 to 1000 | 1000 to 10000 | 1000 to 10000 | 100 to 1000 | 100 to 1000 | – | – | – | – | – | – | – | –
17 | COc1nc(-c2ncc(N(C)[C@@H]3C[C@H]4CC[C@@H](C3)N4)cn2)ccc1-c1cn[nH]c1 [Compound 997] | > 10000 | > 10000 | > 10000 | > 10000 | > 10000 | > 10000 | > 10000 | – | – | – | – | – | – | – | –
